Where two headings read alike, the source gives them in different places.
Tests used:
[1] = target: recombinant human Nav1.7 (Homo sapiens (Human), UniProt Q15858); assay: FRET-based membrane potential assay, recombinant human sodium channel Nav1.7; type: cell-based
Outline: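 Channel activation used veratridine at its EC80, set by a dilution curve each experiment, together with Leiurus scorpion venom, added 3 min after compound. Membrane-potential ratio signals from FLIPR Tetra in HEPES-buffered HBSS were fitted to a four-parameter Hill equation for percent inhibition and IC50.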

[2] = target: recombinant human Nav1.8 (Homo sapiens (Human), UniProt Q9Y5Y9); assay: FRET-based membrane potential assay, recombinant human sodium channel Nav1.8; type: cell-based
recombinant human Nav1.8, sequence (Q9Y5Y9 whole entry): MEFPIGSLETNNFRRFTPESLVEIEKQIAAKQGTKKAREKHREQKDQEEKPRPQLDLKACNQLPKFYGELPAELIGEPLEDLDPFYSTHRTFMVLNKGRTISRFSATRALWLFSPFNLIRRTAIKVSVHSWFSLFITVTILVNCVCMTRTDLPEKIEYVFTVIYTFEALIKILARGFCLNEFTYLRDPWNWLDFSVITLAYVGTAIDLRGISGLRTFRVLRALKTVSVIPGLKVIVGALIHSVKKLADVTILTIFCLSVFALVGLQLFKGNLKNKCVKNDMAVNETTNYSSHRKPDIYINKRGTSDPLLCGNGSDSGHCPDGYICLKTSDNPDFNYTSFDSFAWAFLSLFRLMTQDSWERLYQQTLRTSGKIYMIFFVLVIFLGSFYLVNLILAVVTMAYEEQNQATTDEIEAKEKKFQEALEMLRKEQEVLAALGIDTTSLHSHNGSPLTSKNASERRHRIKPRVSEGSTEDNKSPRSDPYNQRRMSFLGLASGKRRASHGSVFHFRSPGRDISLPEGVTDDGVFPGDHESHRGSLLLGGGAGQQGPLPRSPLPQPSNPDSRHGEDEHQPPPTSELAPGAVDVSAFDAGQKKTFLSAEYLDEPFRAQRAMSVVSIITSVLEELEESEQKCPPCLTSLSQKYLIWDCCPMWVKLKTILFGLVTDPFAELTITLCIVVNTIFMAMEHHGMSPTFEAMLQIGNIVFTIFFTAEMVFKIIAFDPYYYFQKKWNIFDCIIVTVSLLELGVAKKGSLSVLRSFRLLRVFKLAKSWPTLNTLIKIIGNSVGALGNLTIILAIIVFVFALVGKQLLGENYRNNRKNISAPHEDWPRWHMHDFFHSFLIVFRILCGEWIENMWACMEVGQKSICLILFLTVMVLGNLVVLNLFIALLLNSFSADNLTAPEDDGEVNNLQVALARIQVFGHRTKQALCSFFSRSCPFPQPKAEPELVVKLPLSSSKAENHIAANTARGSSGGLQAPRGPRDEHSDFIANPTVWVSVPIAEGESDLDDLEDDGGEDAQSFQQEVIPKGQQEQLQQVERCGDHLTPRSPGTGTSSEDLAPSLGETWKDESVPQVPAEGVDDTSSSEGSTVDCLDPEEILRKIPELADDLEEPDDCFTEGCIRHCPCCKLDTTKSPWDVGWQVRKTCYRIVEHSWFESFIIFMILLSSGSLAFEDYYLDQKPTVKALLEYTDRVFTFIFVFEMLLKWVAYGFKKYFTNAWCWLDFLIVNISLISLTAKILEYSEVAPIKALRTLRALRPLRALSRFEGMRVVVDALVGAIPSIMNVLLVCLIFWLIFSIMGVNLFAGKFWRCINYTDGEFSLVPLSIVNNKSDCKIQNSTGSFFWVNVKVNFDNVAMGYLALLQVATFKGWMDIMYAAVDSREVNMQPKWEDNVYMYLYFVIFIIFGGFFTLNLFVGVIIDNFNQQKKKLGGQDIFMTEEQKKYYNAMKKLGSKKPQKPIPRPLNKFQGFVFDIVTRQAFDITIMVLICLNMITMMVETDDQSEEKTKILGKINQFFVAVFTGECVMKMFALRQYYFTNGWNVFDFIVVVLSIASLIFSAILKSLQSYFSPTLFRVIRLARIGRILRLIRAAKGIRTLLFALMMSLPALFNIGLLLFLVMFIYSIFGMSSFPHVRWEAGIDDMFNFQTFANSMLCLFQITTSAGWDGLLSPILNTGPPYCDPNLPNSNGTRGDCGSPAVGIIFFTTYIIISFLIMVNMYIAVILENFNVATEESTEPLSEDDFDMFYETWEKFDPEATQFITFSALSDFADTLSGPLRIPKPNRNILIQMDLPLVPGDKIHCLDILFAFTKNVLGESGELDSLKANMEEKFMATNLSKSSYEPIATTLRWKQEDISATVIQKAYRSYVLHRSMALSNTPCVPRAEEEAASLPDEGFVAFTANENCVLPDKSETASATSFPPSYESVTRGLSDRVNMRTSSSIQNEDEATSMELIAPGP

[3] = system: osteoarthritic rats; assay: Osteoarthritic (OA) pain induced by sodium monoiodoacetate (MIA), hind limb grip force; type: in vivo, rat; details: rat, 20 days following MIA injection, hind limb grip force; for inhibition in vivo at 30 mg/kg / inhibition in vivo at 10 mg/kg: Rattus norvegicus, 480 h, read-out: OA MPE
Experimental: Osteoarthritic (OA) Pain Induced by Sodium Monoiodoacetate (MIA)
Pain behavior was assessed by measurement of hind limb grip force (GF) in adult osteoarthritic rats. Male Sprague Dawley rats, obtained from Charles River Laboratories, (Wilmington, Mass.), weighing 150-175 g, were injected in the unilateral knee join with a single intra-articular injection of sodium monoiodoacetate (MIA, 3 mg/rat). All rats were tested at 20 days following MIA injection. A behavioral measure of activity-induced pain was carried out. Measurements of the peak hind limb grip force were conducted by recording the maximum compressive force (CFmax), in grams of force, exerted on a hind limb strain gauge setup, in a commercially available grip force measurement system (Columbus Instruments, Columbus, Ohio).
During testing, each rat was gently restrained by grasping it around its rib cage and then allowed to grasp the wire mesh frame attached to the strain gauge. The experimenter then moved the animal in a rostral-to-caudal direction until the grip was broken. Each rat was sequentially tested twice at an approximately 2-3 minute interval to obtain a raw mean grip force (CFmax). This raw mean grip force data was in turn converted to a maximum hindlimb cumulative compressive force (CFmax), as the grams of force/kg of body weight, for each animal.
For evaluating the compound effects, the hind limb grip force was conducted 20 days following the intra-articular injection of MIA. A group of age-matched naïve (not injected with MIA) animals was added as a comparator to the drug-dosed groups. The vehicle control response for each group of MIA-treated animals was defined as the 0% response (0% effect), whereas the naïve control group was defined as the normal response and as 100% effect. The % effect for each dose group was expressed as % return of response to normalcy, compared to the naïve group. A percent maximal possible effect (% MPE) of testing compound was calculated according to the formula: (Treatment CFmax−Vehicle CFmax)/Vehicle CFmax]×100). Higher % effect numbers indicate increased relief from the pain in the model, with 100% indicating a return to the level of response seen in normal (non-osteoarthritic) animals. All experiments evaluating drug effects in this model were conducted in a randomized blinded fashion.
The animals were housed in Association for Assessment and Accreditation of Laboratory Animal Care (AAALAC) approved facilities at AbbVie Inc. in a temperature-regulated environment under a controlled 12-hour light-dark cycle, with lights on at 6:00 a.m. Food and water were available ad libitum at all times except during testing. All testing was done following procedures outlined in protocols approved by AbbVie Inc.'s Institutional Animal Care and Use Committee.

[4] = HEK293 cells stably expressing recombinant human Nav1.8, veratridine + scorpion venom depolarization
[5] = HEK293 cells stably expressing recombinant human Nav1.7, veratridine + scorpion venom depolarization, read-out: FRET-Membrane Potential Nav1.7 IC50
[6] = read-out: FRET-Membrane Potential Nav1.7 IC50

recombinant human Nav1.7, sequence (Q15858 whole entry): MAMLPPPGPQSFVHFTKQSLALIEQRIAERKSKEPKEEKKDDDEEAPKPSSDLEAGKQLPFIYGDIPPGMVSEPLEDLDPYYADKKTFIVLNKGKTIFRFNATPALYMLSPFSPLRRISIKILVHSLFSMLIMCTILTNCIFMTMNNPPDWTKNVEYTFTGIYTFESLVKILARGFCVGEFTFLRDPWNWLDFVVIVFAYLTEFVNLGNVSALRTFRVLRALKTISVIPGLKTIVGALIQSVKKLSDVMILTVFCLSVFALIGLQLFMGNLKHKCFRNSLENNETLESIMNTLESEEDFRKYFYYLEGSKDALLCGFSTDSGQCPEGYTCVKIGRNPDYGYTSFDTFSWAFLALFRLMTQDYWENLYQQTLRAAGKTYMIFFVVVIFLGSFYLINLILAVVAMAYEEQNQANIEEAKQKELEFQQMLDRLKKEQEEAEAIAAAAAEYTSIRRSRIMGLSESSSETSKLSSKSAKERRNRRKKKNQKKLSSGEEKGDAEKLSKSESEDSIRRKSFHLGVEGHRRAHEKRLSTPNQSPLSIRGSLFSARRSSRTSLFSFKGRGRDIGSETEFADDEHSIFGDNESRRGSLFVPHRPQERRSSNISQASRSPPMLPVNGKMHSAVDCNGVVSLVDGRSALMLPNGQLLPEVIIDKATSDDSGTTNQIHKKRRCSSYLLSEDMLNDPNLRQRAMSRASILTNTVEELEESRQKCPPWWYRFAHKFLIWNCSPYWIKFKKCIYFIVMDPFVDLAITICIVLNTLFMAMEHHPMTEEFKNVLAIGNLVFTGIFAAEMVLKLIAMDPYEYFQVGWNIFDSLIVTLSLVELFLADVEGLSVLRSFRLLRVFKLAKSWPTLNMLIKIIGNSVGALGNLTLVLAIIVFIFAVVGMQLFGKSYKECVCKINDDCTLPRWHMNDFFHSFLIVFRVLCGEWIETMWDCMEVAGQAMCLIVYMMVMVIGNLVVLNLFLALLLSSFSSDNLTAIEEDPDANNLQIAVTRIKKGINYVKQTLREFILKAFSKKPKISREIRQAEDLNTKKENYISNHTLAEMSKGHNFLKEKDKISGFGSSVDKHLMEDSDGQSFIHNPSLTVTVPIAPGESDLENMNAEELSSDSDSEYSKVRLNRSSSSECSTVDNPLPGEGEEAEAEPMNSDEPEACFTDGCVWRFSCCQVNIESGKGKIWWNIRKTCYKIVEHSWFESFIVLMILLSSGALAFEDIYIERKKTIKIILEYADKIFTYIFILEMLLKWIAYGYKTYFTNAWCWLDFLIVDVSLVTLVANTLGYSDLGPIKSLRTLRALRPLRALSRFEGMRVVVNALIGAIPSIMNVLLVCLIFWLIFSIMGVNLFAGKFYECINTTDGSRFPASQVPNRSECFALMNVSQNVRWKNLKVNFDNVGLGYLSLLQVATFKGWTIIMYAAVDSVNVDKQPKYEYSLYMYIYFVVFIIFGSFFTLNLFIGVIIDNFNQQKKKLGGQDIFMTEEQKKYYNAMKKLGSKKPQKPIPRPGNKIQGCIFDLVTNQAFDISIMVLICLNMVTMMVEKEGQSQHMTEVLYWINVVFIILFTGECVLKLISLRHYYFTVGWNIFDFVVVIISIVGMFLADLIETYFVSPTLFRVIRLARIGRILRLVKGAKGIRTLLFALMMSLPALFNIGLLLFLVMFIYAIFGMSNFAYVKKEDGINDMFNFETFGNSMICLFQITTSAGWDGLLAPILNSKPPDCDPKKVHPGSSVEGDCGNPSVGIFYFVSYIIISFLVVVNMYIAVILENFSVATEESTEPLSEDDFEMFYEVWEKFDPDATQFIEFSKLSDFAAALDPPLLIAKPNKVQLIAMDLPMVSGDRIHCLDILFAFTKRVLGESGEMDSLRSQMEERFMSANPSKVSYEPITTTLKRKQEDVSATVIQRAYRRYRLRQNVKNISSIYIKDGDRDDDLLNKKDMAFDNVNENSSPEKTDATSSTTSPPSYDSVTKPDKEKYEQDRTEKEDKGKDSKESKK

| Compound | IC50 [2, 4] | IC50 [1, 5] | IC50 [1, 6] | other results |
| --- | --- | --- | --- | --- |
| O=C(c1ccc2cc(Oc3ccc(C(F)(F)F)cn3)ccc2n1)N1CCNCC1C(F)F (single isomer, unassigned) [Example 72, [(2S*)-2-(difluoromethyl)piperazin-1-yl](6-{[5-(trifluoromethyl)pyridin-2-yl]oxy}quinolin-2-yl)methanone] | 3840 nM |  |  | IC50 ([1]; FRET-Membrane Potential Nav1.7 IC50): 2730 nM; inhibition in vivo at 30 mg/kg ([3]; OA dose 30 mg/kg): 11% |
| CN1CC(NC(=O)c2ccc3cc(Oc4ccc(C(F)(F)F)cn4)ccc3n2)CC1=O (single isomer, unassigned) [Example 73, N-[(3R*)-1-methyl-5-oxopyrrolidin-3-yl]-6-{[5-(trifluoromethyl)pyridin-2-yl]oxy}quinoline-2-carboxamide] | 1700 nM | 1440 nM |  | inhibition in vivo at 30 mg/kg ([3]; OA dose 30 mg/kg): 66% |
| CN1CC(NC(=O)c2ccc3cc(Oc4ccc(C(F)(F)F)cn4)ccc3n2)CC1=O (single isomer, unassigned) [Example 74, N-[(3S*)-1-methyl-5-oxopyrrolidin-3-yl]-6-{[5-(trifluoromethyl)pyridin-2-yl]oxy}quinoline-2-carboxamide] | 1880 nM | 863 nM |  | OA MPE ([3]; OA dose 30 mg/kg): 69% |
| O=C(c1ccc2cc(Oc3ccc(C(F)(F)F)cn3)ccc2n1)N1CC(O)C1 [Example 18, (3-hydroxyazetidin-1-yl)(6-{[5-(trifluoromethyl)pyridin-2-yl]oxy}quinolin-2-yl)methanone] |  | 2200 nM |  | IC50 [2]: 5340 nM; inhibition in vivo at 10 mg/kg ([3]; OA dose 10 mg/kg): 23% |
| O=C(c1ccc2cc(Oc3ccc(C(F)(F)F)nc3)ccc2n1)N1CCNCC1 [Example 19, piperazin-1-yl(6-{[6-(trifluoromethyl)pyridin-3-yl]oxy}quinolin-2-yl)methanone] | 3960 nM | 1260 nM |  | inhibition in vivo at 30 mg/kg ([3]; OA dose 30 mg/kg): 64% |
| O=C(c1ccc2cc(Oc3ccc(C(F)(F)F)cn3)ccc2n1)N1CCNC(C(F)(F)F)C1 (centres unmarked) [Example 20, [3-(trifluoromethyl)piperazin-1-yl](6-{[5-(trifluoromethyl)pyridin-2-yl]oxy}quinolin-2-yl)methanone] | 3230 nM | 10500 nM |  | inhibition in vivo at 10 mg/kg ([3]; OA dose 10 mg/kg): 24% |
| O=C(NC1CCC(F)(F)CC1)c1ccc2cc(Oc3ccc(C(F)(F)F)cn3)ccc2n1 [Example 23, N-(4,4-difluorocyclohexyl)-6-{[5-(trifluoromethyl)pyridin-2-yl]oxy}quinoline-2-carboxamide] | > 20000 nM | 1450 nM |  | inhibition in vivo at 30 mg/kg ([3]; OA dose 30 mg/kg): 83% |
| O=C(c1ccc2cc(Oc3ccc(C(F)(F)F)cn3)ccc2n1)N1CCNCC1C(F)F (centres unmarked) [Example 25, [2-(difluoromethyl)piperazin-1-yl](6-{[5-(trifluoromethyl)pyridin-2-yl]oxy}quinolin-2-yl)methanone] | 3830 nM |  | 1750 nM | inhibition in vivo at 30 mg/kg ([3]; OA dose 30 mg/kg): 102% |
| O=C(c1ccc2cc(Oc3ccc(C(F)(F)F)cn3)ccc2n1)N1CCN(CCO)CC1 [Example 28, [4-(2-hydroxyethyl)piperazin-1-yl](6-{[5-(trifluoromethyl)pyridin-2-yl]oxy}quinolin-2-yl)methanone] | 4220 nM | 3060 nM |  | inhibition in vivo at 10 mg/kg ([3]; OA dose 10 mg/kg): 16% |
| N[C@@H]1[C@H]2CN(C(=O)c3ccc4cc(Oc5ccc(C(F)(F)F)cn5)ccc4n3)C[C@@H]12 [Example 36, meso-[(1R,5S,6s)-6-amino-3-azabicyclo[3.1.0]hex-3-yl](6-{[5-(trifluoromethyl)pyridin-2-yl]oxy}quinolin-2-yl)methanone] | 1420 nM | 727 nM |  | OA MPE ([3]; OA dose 10 mg/kg): 55% |
| O=C(NCC(=O)N1CCCC1)c1ccc2cc(Oc3ccc(C(F)(F)F)cn3)ccc2n1 [Example 44, N-[2-oxo-2-(pyrrolidin-1-yl)ethyl]-6-{[5-(trifluoromethyl)pyridin-2-yl]oxy}quinoline-2-carboxamide] |  |  |  | IC50 [2]: 937 nM; inhibition in vivo at 10 mg/kg ([3]; OA dose 10 mg/kg): 42% |
| CCN1CC(NC(=O)c2ccc3cc(Oc4ccc(C(F)(F)F)cn4)ccc3n2)CC1=O (centres unmarked) [Example 45, N-(1-ethyl-5-oxopyrrolidin-3-yl)-6-{[5-(trifluoromethyl)pyridin-2-yl]oxy}quinoline-2-carboxamide] | 468 nM | 325 nM |  | inhibition in vivo at 30 mg/kg ([3]; OA dose 30 mg/kg): 17% |
| CCN1CC(NC(=O)c2ccc3cc(Oc4ccc(C(F)F)cn4)ccc3n2)CC1=O (centres unmarked) [Example 46, 6-{[5-(difluoromethyl)pyridin-2-yl]oxy}-N-(1-ethyl-5-oxopyrrolidin-3-yl)quinoline-2-carboxamide] | 501 nM | 344 nM |  | inhibition in vivo at 30 mg/kg ([3]; OA dose 30 mg/kg): 98% |
| O=C(c1ccc2cc(Oc3ccc(C(F)(F)F)cn3)ccc2n1)N1CCN(C2CCC2)CC1 [Example 47, (4-cyclobutylpiperazin-1-yl)(6-{[5-(trifluoromethyl)pyridin-2-yl]oxy}quinolin-2-yl)methanone] | 334 nM |  | 1420 nM | inhibition in vivo at 10 mg/kg ([3]; OA dose 10 mg/kg): 30% |
| CC1(NC(=O)c2ccc3cc(Oc4ccc(C(F)(F)F)cn4)ccc3n2)COC1 [Example 48, N-(3-methyloxetan-3-yl)-6-{[5-(trifluoromethyl)pyridin-2-yl]oxy}quinoline-2-carboxamide] | 774 nM | 4430 nM |  | inhibition in vivo at 10 mg/kg ([3]; OA dose 10 mg/kg): 41% |
| O=C(c1ccc2cc(Oc3ccc(C(F)(F)F)cn3)ccc2n1)N1CCNCC(F)(F)C1 [Example 417, (6,6-difluoro-1,4-diazepan-1-yl)(6-{[5-(trifluoromethyl)pyridin-2-yl]oxy}quinolin-2-yl)methanone] | 2750 nM |  | 11500 nM |  |
| O=C1C[C@@H](NC(=O)c2ccc3cc(Oc4ccc(C(F)(F)F)cn4)ccc3n2)CCN1 [Example 512, N-[(4S)-2-oxopiperidin-4-yl]-6-{[5-(trifluoromethyl)pyridin-2-yl]oxy}quinoline-2-carboxamide] | 213 nM |  | 983 nM |  |
| O=C1C[C@H](NC(=O)c2ccc3cc(Oc4ccc(C(F)(F)F)cn4)ccc3n2)CCN1 [Example 521, N-[(4R)-2-oxopiperidin-4-yl]-6-{[5-(trifluoromethyl)pyridin-2-yl]oxy}quinoline-2-carboxamide] | 1100 nM |  | 2630 nM |  |
| CN1CCC(N(C)C(=O)c2ccc3cc(Oc4ccc(C(F)(F)F)cn4)ccc3n2)CC1=O (centres unmarked) [Example 529, N-methyl-N-(1-methyl-2-oxopiperidin-4-yl)-6-{[5-(trifluoromethyl)pyridin-2-yl]oxy}quinoline-2-carboxamide] | > 20000 nM |  | 10300 nM |  |
| O=C(NC1CC(F)(F)C1)c1ccc2cc(Oc3ccc(C(F)F)cn3)ccc2n1 [Example 580, N-(3,3-difluorocyclobutyl)-6-{[5-(difluoromethyl)pyridin-2-yl]oxy}quinoline-2-carboxamide] | 1140 nM |  | 1560 nM |  |
| O=C(c1ccc2cc(Oc3ccc(C(F)(F)F)cn3)ccc2n1)N1CCNC[C@@H]1C(F)F [Example 603, [(2R)-2-(difluoromethyl)piperazin-1-yl](6-{[5-(trifluoromethyl)pyridin-2-yl]oxy}quinolin-2-yl)methanone] | 3670 nM |  | 1950 nM |  |
| O=C(c1ccc2cc(Oc3ccc(C(F)(F)F)cn3)ccc2n1)N1CC(NCC(F)(F)F)C1 [Example 621, {3-[(2,2,2-trifluoroethyl)amino]azetidin-1-yl}(6-{[5-(trifluoromethyl)pyridin-2-yl]oxy}quinolin-2-yl)methanone] | 1650 nM | 2690 nM |  |  |
| CN(CC(F)F)C(=O)c1ccc2cc(Oc3ccc(C(F)(F)F)cn3)ccc2n1 [Example 622, N-(2,2-difluoroethyl)-N-methyl-6-{[5-(trifluoromethyl)pyridin-2-yl]oxy}quinoline-2-carboxamide] | 2280 nM |  | 5400 nM |  |
| O=C(c1ccc2cc(Oc3ccc(C(F)(F)F)cn3)ccc2n1)N1CC2(CCOCC2)C1 [Example 623, 7-oxa-2-azaspiro[3.5]non-2-yl(6-{[5-(trifluoromethyl)pyridin-2-yl]oxy}quinolin-2-yl)methanone] | 3700 nM | 4910 nM |  |  |
